Measurements reported in patent US20250388643A1, “GLUCAGON-LIKE PEPTIDE-2 COMPOSITIONS AND METHODS OF MAKING AND USING SAME” (Amunix Pharmaceuticals, Inc., priority 2011, published 2025).
Read-outs that look alike come from different tables or passages of the source.

Columns and labels:
[1] = system: DSS-induced intestinal colitis in C57Bl/6 mice; experiment: Murine acute DSS-induced colitis model; format: in vivo, mouse; settings: DSS-treated mice
Procedure: To determine the efficacy of GLP2-XTEN, the GLP2-2G-XTEN-AE864 fusion protein was evaluated in a mouse model of intestinal inflammatory colitis. […] A naïve, non-treated control group (group 1) was given normal drinking water for the duration of the experiment. […] Tissues were fixed in formalin and then transferred to ethanol for staining and histopathology. The anatomical data was analyzed with an ANOVA model with a Tukey/Kramer post-hoc test for pairwise comparisons, with significance at p=0.05.

[2] = system: small intestine growth in rats; experiment: Intestinotrophic growth in normal rats (small intestine weight and length); format: in vivo, rat; settings: normal Sprague-Dawley rats, SC 12 days; peptide 12.5 nmol/kg twice daily, fusion protein 25 nmol/kg once daily
Procedure: To determine the intestinotrophic properties of GLP2-XTEN, small intestine growth in rats was measured as a primary pharmacodynamic endpoint. […] GLP2-2G-XTEN was dosed at 25 nmol/kg once daily for 12 days. After sacrifice, a midline incision was made, the small intestines were removed, stretched to their maximum length and the length recorded. The fecal material was flushed from the lumen and the small intestinal wet weight recorded. The small intestine length and weight data were analyzed with an ANOVA model with a Tukey/Kramer post-hoc test for pairwise comparisons, with significance at p=0.05.

[3] = system: indomethacin-induced intestinal inflammation in Wistar rats; experiment: Rat Crohn's Disease indomethacin-induced intestinal inflammation model, Study 1; format: in vivo
Procedure: To determine the efficacy of GLP2-XTEN using single dose or qd dosing, the GLP2-2G-XTEN-AE864 fusion protein was evaluated in a rat model of Crohn's Disease of indomethacin-induced intestinal inflammation in three separate studies.
Study 1: Intestinal inflammation was induced in eighty male Wistar rats (Harlan Sprague Dawley) using indomethacin administered on Days 0 and 1 of the experiment. The rats were divided into seven treatment groups for treatment according to Table 19.
All treatments were administered per the schedule starting on Day −3 of the experiment. Body weights were determined daily. Groups 3 and 5 were dosed equimolar/day. On Day 2 (24 hours post-2nd indomethacin dose), the animals were prepped for sacrifice and analysis. Thirty minutes prior to sacrifice, the rats were injected intravenously with 1 ml 1% Evans Blue dye, in order to visualize ulcers and extent of inflammation by histopathology analysis. The rats were anesthetized (SOP 1810), blood samples were removed to determine the concentration of GLP-2-2G-XTEN using the anti-XTEN/anti-GLP2 ELISA method. The rats were euthanized then necropsied and scored by gross examination of the intestines for the presence of adhesions; i.e., none=0, mild=1, moderate=2, or severe=3. The small intestines were removed and the length of each was recorded. In each small intestine, a longitudinal incision was made and the interior was examined. The degree and length of the ulcerated area was recorded as a score; i.e., none=0, few=1, multiple=2, or continuous=3. For TNFα determination, intestinal samples were thawed and homogenized in a total of 20 ml with DPBS. The supernatants were equilibrated to room temperature and assayed for TNFα by ELISA (R&D Systems, Cat. RTA00, lot 281687, exp. 7 Sep. 2011). The samples for Group 1 were assayed undiluted. The samples for Groups 2-7 were diluted 1:4. For histopathology, the small intestines were gently washed with saline to remove the fecal material and were blotted to remove excess fluid. Each small intestine was weighed then processed for histopathology examination to quantitate the degree of inflammation; i.e., 0.0%=0, 1-33%=1, 34-66%=2, 67-100%=3.

[4] = system: indomethacin-induced intestinal inflammation in Wistar rats; experiment: Rat Crohn's Disease indomethacin-induced intestinal inflammation model, Study 3; format: in vivo
Procedure: Study 3: A third indomethacin-induced inflammation study was performed to verify previous results and test additional dose regimens. Intestinal inflammation was induced in male Wistar rats (Harlan Sprague Dawley) using indomethacin administered on Days 0 and 1 of the experiment according to Table 21.
All treatments were administered per the schedule starting on Day-3 of the experiment. Body weights were determined daily. On Day 2 (24 hours post-2nd indomethacin dose), the animals were prepped for sacrifice and analysis. The small intestines were removed and the length of each was recorded. Quantitative histopathology was performed on a subset of samples. Rat small intestine samples consisted of a 3 cm section of proximal jejunum and a 3 cm section of mid-jejunum collected 15 cm and 30 cm from the pylorus, respectively. Samples were fixed in 10% neutral buffered formalin. Samples were trimmed into multiple sections without bias toward lesion presence or absence. These sections were placed in cassettes, embedded in paraffin, microtomed at approximately 4 microns thickness, and stained with hematoxylin and eosin (H&E). The slides were evaluated microscopically by a board certified veterinary pathologist and scored for villous height as well as infiltration/inflammation, mucosal atrophy, villi/crypt appearance, abscesses/ulceration. A 1 to 4 severity grading scale was used, where 1=minimal, 2=mild, 3=moderate, 4=marked/severe, reflecting the combination of the cellular reactions seen histopathologically. Small intestine length was analyzed with an ANOVA model with a Tukey/Kramer post-hoc test for pairwise comparisons, with significance at p=0.05. Non-parametric histology score variables were compared with the vehicle control using a Mann Whitney U test with a Bonferroni correction for the p-value to create an overall alpha of 0.05.

[5] = system: indomethacin-induced intestinal inflammation in Wistar rats; format: in vivo, rat
Procedure: Study 2: Intestinal inflammation was induced in eighty male Wistar rats (Harlan Sprague Dawley) using indomethacin administered on Days 0 and 1 of the experiment. The rats were divided into eight treatment groups for treatment according to Table 20. All treatments were administered per the schedule starting on Day-3 of the experiment. Body weights were determined daily. On Day 2 (24 hours post-2nd indomethacin dose), the animals were prepped for sacrifice and analysis. Thirty minutes prior to sacrifice, the rats were injected intravenously with 1 ml 1% Evans Blue dye, in order to visualize ulcers and extent of inflammation by histopathology analysis. The rats were anesthetized and blood samples were removed to determine the concentration of GLP-2-2G-XTEN using the anti-XTEN/anti-GLP2 ELISA method. The rats were euthanized then necropsied and scored by gross examination of the intestines for the presence of adhesions; i.e., none=0, mild=1, moderate=2, or severe=3. The small intestines were removed and the length of each was recorded. In each small intestine, a longitudinal incision was made and the interior was examined. The degree and length of the ulcerated area was recorded as a score; i.e., none=0, few=1, multiple=2, or continuous=3. The fecal material was washed away with saline and blotted to remove excess fluid and each small intestine was weighed then processed for histopathology examination to quantitate the degree of inflammation; i.e., 0.0%=0, 1-33%=1, 34-66%=2, 67-100%=3.

[6] = cited from earlier work; for terminal half-life: in humans

CC[C@H](C)[C@H](NC(=O)[C@H](Cc1ccccc1)NC(=O)[C@H](CC(=O)O)NC(=O)[C@H](CCCNC(=N)N)NC(=O)[C@H](C)NC(=O)[C@H](C)NC(=O)[C@H](CC(C)C)NC(=O)[C@H](CC(N)=O)NC(=O)[C@H](CC(=O)O)NC(=O)[C@H](CC(C)C)NC(=O)[C@@H](NC(=O)[C@@H](NC(=O)[C@H](CC(N)=O)NC(=O)[C@H](CCSC)NC(=O)[C@H](CCC(=O)O)NC(=O)[C@H](CC(=O)O)NC(=O)[C@H](CO)NC(=O)[C@H](Cc1ccccc1)NC(=O)[C@H](CO)NC(=O)CNC(=O)[C@H](CC(=O)O)NC(=O)CNC(=O)[C@@H](N)Cc1c[nH]cn1)[C@@H](C)O)[C@@H](C)CC)C(=O)N[C@@H](CC(N)=O)C(=O)N[C@@H](Cc1c[nH]c2ccccc12)C(=O)N[C@@H](CC(C)C)C(=O)N[C@H](C(=O)N[C@@H](CCC(N)=O)C(=O)N[C@H](C(=O)N[C@@H](CCCCN)C(=O)N[C@H](C(=O)N[C@H](C(=O)N[C@@H](CC(=O)O)C(=O)O)[C@@H](C)O)[C@@H](C)CC)[C@@H](C)O)[C@@H](C)CC [GLP2-2G peptide, reference compound]
growth in the assayed tissues (colon, small intestine, stomach) ([1]; BID days 1-10): did not induce significant growth | loss of body weight ([1]; SC days 1-10, peptide BID, fusion protein QD, any dose): neither the mice treated with GLP2-2G peptide nor any of the groups of mice treated with any dose of GLP2-2G-XTEN mice showed a reduced loss of body weight | increase in small intestine length [2]: no significant effects | increase in small intestine weight [2]: 24% | small intestine weight ([3]; 0.5 mg/kg peptide, both fusion protein groups, compared to diseased control Group 2, FIG. 21C): significant increase | small intestine length ([3]; FIG. 21B): significant increase | ulceration (gross pathology scoring of small intestine) ([3]; FIG. 21D): significant decreases in ulceration | small intestine inflammation score ([3]; FIG. 21F): neither the GLP-2-2G peptide nor the GLP-2-2G-XTEN fusion protein treatments showed a significant effect on inflammation | body weight at termination ([3]; compared to disease control (Group 2), FIG. 21A): did not have a significant increase in body weight | scores of adhesions and transulceration ([3]; compared to diseased control (Group 2), FIG. 21E): significant decreases | TNFα in small intestine (ELISA) ([3]; compared to diseased control Group 2, FIG. 21G): significantly decreased cytokine levels | villi height ([4]; fusion protein high (total dose 125 nmol/kg) and low (total dose 75 nmol/kg), FIG. 24B): not significant | mucosal ulceration and mixed cell infiltrate ([4]; three treatment groups): not significant | histopathology: protective effects ([5]; daily bid peptide, once-daily fusion protein): most pronounced in the ileum, but were also seen in the jejunum | adhesions score ([5]; once-daily fusion protein, daily bid peptide, FIG. 22B): reached statistically significant difference | small intestine length ([5]; once-daily fusion protein, daily bid peptide, vs indomethacin-treated vehicle control): reached statistically significant difference | total disease score ([5]; peptide delivered bid, fusion protein delivered qd, vs indomethacin-treated vehicle control): significantly improved scores

CC[C@H](C)[C@H](NC(=O)[C@H](Cc1ccccc1)NC(=O)[C@H](CC(=O)O)NC(=O)[C@H](CCCNC(=N)N)NC(=O)[C@H](C)NC(=O)[C@H](C)NC(=O)[C@H](CC(C)C)NC(=O)[C@H](CC(N)=O)NC(=O)[C@H](CC(=O)O)NC(=O)[C@H](CC(C)C)NC(=O)[C@@H](NC(=O)[C@@H](NC(=O)[C@H](CC(N)=O)NC(=O)[C@H](CCSC)NC(=O)[C@H](CCC(=O)O)NC(=O)[C@H](CC(=O)O)NC(=O)[C@H](CO)NC(=O)[C@H](Cc1ccccc1)NC(=O)[C@H](CO)NC(=O)CNC(=O)[C@H](CC(=O)O)NC(=O)CNC(=O)[C@@H](N)Cc1c[nH]cn1)[C@@H](C)O)[C@@H](C)CC)C(=O)N[C@@H](CC(N)=O)C(=O)N[C@@H](Cc1c[nH]c2ccccc12)C(=O)N[C@@H](CC(C)C)C(=O)N[C@H](C(=O)N[C@@H](CCC(N)=O)C(=O)N[C@H](C(=O)N[C@@H](CCCCN)C(=O)N[C@H](C(=O)N[C@H](C(=O)N[C@@H](CC(=O)O)C(=O)O)[C@@H](C)O)[C@@H](C)CC)[C@@H](C)O)[C@@H](C)CC [teduglutide]
terminal half-life ([6]; reported (Marier 2008)): 192 min | terminal half-life ([6]; reported (Marier 2010)): 54 to 138 min | half life ([6]; reported (Marier 2010)): 54 to 138 min

native GLP-2: human glucagon-like peptide-2, 33 amino acids, HADGSFSDEMNTILDNLAARDFINWLIQTKITD (SEQ ID NO: 2)
half-life (terminal half-life in humans) ([6]; human, in vivo): approximately seven minutes
